Laboratory results: patent US20020052295A1, “Diacyl derivatives of propylene diamine having herbicidal activity” (priority 1999, published 2002)

Columns and labels:
ABUTH = experiment: Pre-emergence herbicidal activity on ABUTH (velvetleaf); format: in vivo, Abutilon theophrasti
Procedure, shortened: (§1)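 GR80 values come from percent inhibition relative to untreated plants, rated roughly 14 days after planting and treating, with rates up to typically 1000 g/ha. Compound was sprayed onto the soil over freshly covered seeds as a dilution in 50:50 acetone/water; pots kept in greenhouse at 30/21° C. day/night after 0.64 cm overhead watering.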

SOLNI = experiment: Pre-emergence herbicidal activity on SOLNI (black nightshade); format: in vivo, Solanum nigrum
Procedure, shortened: as §1

AMARE = experiment: Pre-emergence herbicidal activity on AMARE (redroot pigweed); format: in vivo, Amaranthus retroflexus
Procedure, shortened: as §1

DATST = experiment: Pre-emergence herbicidal activity on DATST (jimsonweed); format: in vivo, Datura stramonium
Procedure, shortened: as §1

CHEAL = experiment: Pre-emergence herbicidal activity on CHEAL (common lambsquarters); format: in vivo, Chenopodium album
Procedure, shortened: as §1

CONAR = experiment: Pre-emergence herbicidal activity on CONAR (field bindweed); format: in vivo, Convolvulus arvensis
Procedure, shortened: as §1

POROL = experiment: Pre-emergence herbicidal activity on POROL (common purslane); format: in vivo, Portulaca oleracea
Procedure, shortened: as §1

CIRAR = experiment: Pre-emergence herbicidal activity on CIRAR (canada thistle, seedling); format: in vivo, Cirsium arvense
Procedure, shortened: as §1

ECHCG = experiment: Pre-emergence herbicidal activity on ECHCG (barnyardgrass); format: in vivo, Echinochloa crus-galli; details: racemic mixture vs enantiomers test; rates tested 1000, 650, 300, 200, 100, 65, 30 and 10 g/ha; lowest rate with 80% or greater inhibition
Procedure, shortened: as §1

PANMI = experiment: Pre-emergence herbicidal activity on PANMI (wild proso millet); format: in vivo, Panicum miliaceum
Procedure, shortened: as §1

SORHA = experiment: Pre-emergence herbicidal activity on SORHA (johnsongrass, seedling); format: in vivo, Sorghum halepense
Procedure, shortened: as §1

SETFA = experiment: Pre-emergence herbicidal activity on SETFA (giant foxtail); format: in vivo, Setaria faberi
Procedure, shortened: as §1

PANDI = experiment: Pre-emergence herbicidal activity on PANDI (fall panicum); format: in vivo, Panicum dichotomiflorum
Procedure, shortened: as §1

SORVU = experiment: Pre-emergence herbicidal activity on SORVU (shattercane); format: in vivo, Sorghum vulgare; details: racemic mixture vs enantiomers test; rates tested 1000, 650, 300, 200, 100, 65, 30 and 10 g/ha; lowest rate with 80% or greater inhibition
Procedure, shortened: as §1

BRAPP = experiment: Pre-emergence herbicidal activity on BRAPP (broadleaf signalgrass); format: in vivo, Brachiaria platyphylla
Procedure, shortened: as §1

DIGSA = experiment: Pre-emergence herbicidal activity on DIGSA (large crabgrass); format: in vivo, Digitaria sanguinalis
Procedure, shortened: as §1

dicotyledonous species = experiment: Pre-emergence test (later test), average GR80 on dicotyledonous species; format: in vivo; details: average over dicotyledonous species
Description: (§2) All such uses, and the biological activity enabling such uses, are embraced by the term “herbicidal” herein. Tables 15 and 16 summarize results of tests conducted as described below to determine the pre-emergence herbicidal activity, in the form of a GR80 value, of illustrative compounds of this invention. […] Where herbicidal activity was evident but 80% inhibition was not achieved at the highest rate tested (typically 1000 g/ha), an asterisk (*) is shown in the following tables. Herbicidal activity evident in the form of symptoms of phytotoxicity, in the absence of at least 80% inhibition at any rate, is indicated in the tables by “phyto”. A blank cell in the following tables indicates no herbicidal or phytotoxic response at any rate tested.
(§3) The pre-emergence tests were conducted by the following procedure. Topsoil was sieved to pass through a 1.27 cm screen. Fertilizer was added to the topsoil and the mixture was then sterilized by heating. The topsoil mixture was placed in a pot and compacted to a depth of 1.0 to 1.25 cm from the top of the pot. Seeds of each of several monocotyledonous and dicotyledonous annual plant species were placed on top of the soil. […]
(§4) Approximately 14 days after planting and treating, the plants were observed and herbicidal efficacy recorded as percent inhibition by comparison with untreated plants. […]

monocotyledonous species = experiment: Pre-emergence test (later test), GR80 on monocotyledonous species; format: in vivo; details: average over monocotyledonous species
Description: as §2, §3, §4

[1] = tested on: monocotyledonous and dicotyledonous annual plant species; experiment: Greenhouse pre-emergence test, all species of the test taken together; format: in vivo
Description: All such uses, and the biological activity enabling such uses, are embraced by the term “herbicidal” herein. […] Where herbicidal activity was evident but 80% inhibition was not achieved at the highest rate tested (typically 1000 g/ha), an asterisk (*) is shown in the following tables. Herbicidal activity evident in the form of symptoms of phytotoxicity, in the absence of at least 80% inhibition at any rate, is indicated in the tables by “phyto”. A blank cell in the following tables indicates no herbicidal or phytotoxic response at any rate tested.
The pre-emergence tests were conducted by the following procedure. Topsoil was sieved to pass through a 1.27 cm screen. Fertilizer was added to the topsoil and the mixture was then sterilized by heating. The topsoil mixture was placed in a pot and compacted to a depth of 1.0 to 1.25 cm from the top of the pot. Seeds of each of several monocotyledonous and dicotyledonous annual plant species were placed on top of the soil. Additional soil was subsequently placed over the seeds to level-fill the pot. A known amount of each test compound dissolved or suspended in an appropriate organic solvent was diluted with a 50:50 mix of acetone and water and applied to the surface of the soil. After treatment the plants were placed in a greenhouse with a 30/21° C. day/night temperature regime where they received 0.64 cm of overhead irrigation. All subsequent watering consisted of a light overhead mist and/or subirrigation as needed for germination and growth.
Pre-emergence herbicidal activity of the compound of Example 5, a racemic mixture of R- and S-enantiomers of N,N′-(1,2-propanediylbis)-3-(trifluoromethyl) benzamide, was compared with that of the individual R- and S-enantiomers, the compounds of Examples 5a and 5b respectively. The procedure was exactly as described above. Rates tested were 1000, 650, 300, 200, 100, 65, 30 and 10 g/ha.
In a greenhouse pre-emergence test conducted according to the procedure described hereinabove, R—N,N′-(1,2-propanediylbis)-3-(trifluoromethyl)benzamide (the compound of Example 5a) was applied at 200 g/ha and acetochlor was applied at 100 g/ha, both individually and in combination.
In the same greenhouse pre-emergence test, R-2-fluoro-3-trifluoromethyl-N-[1-methyl-2-(3-trifluoromethyl)phenylcarbonylamino]ethylbenzamide (the compound of Example 13) was applied at 100 g/ha and acetochlor was applied at 100 g/ha, both individually and in combination.

corn (maize) = experiment: Field trials, crop selectivity in corn; format: in vivo; details: pre-emergence rates giving acceptable weed control
sorghum = experiment: Field trials, crop selectivity in sorghum; format: in vivo; details: pre-emergence rates giving acceptable weed control
soybeans = experiment: Field trials, crop selectivity in soybeans; format: in vivo; details: pre-emergence rates giving acceptable weed control
[2] = tested on: several weed species, predominantly dicotyledonous species; experiment: Field trials, pre-emergence weed control; format: in vivo; details: pre-emergence application
cotton = details: field trials; pre-emergence
rice = details: field trials; pre-emergence
[3] = pre-emergence application, Example 5a 200 g/ha alone
[4] = racemic mixture vs enantiomers test, rates tested 1000, 650, 300, 200, 100, 65, 30 and 10 g/ha, lowest rate with 80% or greater inhibition

With C[C@H](CNC(=O)c1cccc(C(F)(F)F)c1)NC(=O)c1cccc(C(F)(F)F)c1 [Example 5a, R—N,N′-(1,2-propanediylbis)-3-(trifluoromethyl)benzamide] as the compound, how does the “Percent control ABUTH” value (ABUTH; [3]) read?
Its value is 8%.

What about the “Pre-emergence activity (GR80) ABUTH” value (ABUTH; [4]) of the same compound?
The value was 650 g/ha.

What about the “Percent control SOLNI” value (SOLNI; [3]) of the same compound?
Its value is 100%.

And the “Pre-emergence activity (GR80) SOLNI” value (SOLNI; [4])?
The value was 200 g/ha.

And the “Percent control AMARE” value (AMARE; [3])?
The value was 100%.

And the “Pre-emergence activity (GR80) AMARE” value (AMARE; [4])?
Its value is 30 g/ha.

And the “Percent control DATST” value (DATST; [3])?
The value was 41%.

What about the “Pre-emergence activity (GR80) DATST” value (DATST; [4]) of the same compound?
Its value is 650 g/ha.

And the “Percent control CHEAL” value (CHEAL; [3])?
Its value is 100%.

And the “Pre-emergence activity (GR80) CHEAL” value (CHEAL; [4])?
Its value is 65 g/ha.

And the “Percent control CONAR” value (CONAR; [3])?
The value was 22%.

And the “Pre-emergence activity (GR80) CONAR” value (CONAR; [4])?
The value was “phyto”.

And the “Percent control POROL” value (POROL; [3])?
Its value is 100%.

And the “Pre-emergence activity (GR80) PORAL” value (POROL; [4])?
The value was 30 g/ha.

What about the “Percent control CIRAR” value (CIRAR; [3]) of the same compound?
The value was 35%.

And the “Pre-emergence activity (GR80) CIRAR” value (CIRAR; [4])?
Its value is 1000 g/ha.

And the “Pre-emergence activity (GR80) ECHCG” value (ECHCG)?
Its value is “phyto”.

What about the “Percent control PANMI” value (PANMI; [3]) of the same compound?
The value was 20%.

What about the “Pre-emergence activity (GR80) PANMI” value (PANMI; [4]) of the same compound?
Its value is 300 g/ha.

And the “Percent control SORHA” value (SORHA; [3])?
Its value is 30%.

And the “Pre-emergence activity (GR80) SORHA” value (SORHA; [4])?
Its value is “phyto”.

What about the “Percent control SETFA” value (SETFA; [3]) of the same compound?
The value was 40%.

What about the “Pre-emergence activity (GR80) SETFA” value (SETFA; [4]) of the same compound?
The value was “phyto”.

And the “Percent control PANDI” value (PANDI; [3])?
Its value is 55%.

And the “Pre-emergence activity (GR80) PANDI” value (PANDI; [4])?
The value was 200 g/ha.

And the “Pre-emergence activity (GR80) SORVU” value (SORVU)?
Its value is “[empty]”.

What about the “Percent control BRAPP” value (BRAPP; [3]) of the same compound?
The value was 15%.

And the “Pre-emergence activity (GR80) BRAPP” value (BRAPP; [4])?
Its value is “phyto”.

And the “Percent control DIGSA” value (DIGSA; [3])?
Its value is 82%.

And the “Pre-emergence activity (GR80) DIGSA” value (DIGSA; [4])?
Its value is 65 g/ha.

What about the “average pre-emergence GR80 on dicotyledonous species” value (dicotyledonous species) of the same compound?
Its value is 235 g/ha.

What about the “pre-emergence GR80 on monocotyledonous species” value (monocotyledonous species) of the same compound?
Its value is 711 g/ha.

What about the “herbicidal activity of the combination compared with expectation” value ([1]; Example 5a 200 g/ha + acetochlor 100 g/ha, at least on ABUTH, DATST, SORHA and PANMI) of the same compound?
The value was “greater than expected herbicidal activity”.

What about the “number of the 14 species showing >85% control” value ([1]; Example 5a 200 g/ha in combination with acetochlor 100 g/ha) of the same compound?
Its value is 11.

What about the “number of the 14 species showing >85% control” value ([1]; Example 5a alone at 200 g/ha) of the same compound?
The value was 4.

What about the “GR80 values relative to those of the racemic mixture” value ([1]; typical over species of Tables 19 and 20) of the same compound?
The value was “about one-half”.

And the “crop injury, corn (maize)” value (corn (maize))?
The value was “not injurious”.

What about the “crop injury, sorghum” value (sorghum) of the same compound?
The value was “not injurious”.

What about the “crop injury, soybeans” value (soybeans) of the same compound?
The value was “not injurious”.

And the “weed control in field trials” value [2]?
The value was “acceptable control”.

What about the “crop selectivity, cotton” value (cotton) of the same compound?
Its value is “not to be adequately selective”.

And the “crop selectivity, rice” value (rice)?
Its value is “not to be adequately selective”.
